Data: patent US20230270720A1, “MAVOGLURANT, A MGLUR5 ANTAGONIST, FOR USE IN THE TREATMENT IN THE REDUCTION OF OPIOID USE” (Novartis AG, priority 2020, published 2023)

What was measured:
Sprague-Dawley rats [1] = test: Cue-induced reinstatement of remifentanil seeking in the rat; type: in vivo
Sprague-Dawley rats [2] = test: Remifentanil intravenous self-administration model in Sprague-Dawley rats; type: in vivo, rat; settings: for rate of lever press (speed of lever pressing): vehicle 0.077±0.031, P>0.05
morphine tolerant mice = test: Opiate tolerance test (hot plate) in the mouse; type: in vivo; settings: for increase of foot-licking latency as compared with animals receiving morphine from Day 1 to Day 6: morphine 32 mg/kg i.p. twice daily Day 1-6; for effect on foot-licking latency: morphine tolerant mice
[3] = test system: rat model of drug dependence; settings: cited from earlier work
adult CD1 mice = settings: 20 mg/kg, i.p., cited from earlier work

COC(=O)N1CC[C@@H]2[C@H]1CCC[C@@]2(O)C#Cc1cccc(C)c1 [Compound (I), (−)-(3aR,4S,7aR)-4-Hydroxy-4-m-tolylethynyl-octahydro-indole-1-carboxylic acid methyl ester]
effect on cue-induced reinstatement (lever presses) (Sprague-Dawley rats [1]; 3 mg/kg p.o. 30 minutes before the cue reinstatement session): No significant effect | number of active lever presses as compared with vehicle condition (Sprague-Dawley rats [1]; 10 mg/kg p.o. 30 minutes before the cue reinstatement session, p<0.01): significantly decreased | number of inactive lever presses as compared with vehicle (Sprague-Dawley rats [1]; 10 mg/kg p.o. 30 minutes before the cue reinstatement session, p<0.05): significantly decreased | average number of remifentanil infusions (Sprague-Dawley rats [2]; 3 mg/kg p.o. 30 min before one remifentanil 3.2 μg/kg/infusion session): did not significantly affect | rate of lever press (speed of lever pressing) (Sprague-Dawley rats [2]; 3 mg/kg p.o. 30 min before session): 0.048±0.019 responses/second/session | average number of remifentanil infusions (Sprague-Dawley rats [2]; 10 mg/kg p.o. 30 min before one remifentanil 3.2 μg/kg/infusion session): did not significantly affect | rate of lever press (speed of lever pressing) (Sprague-Dawley rats [2]; 10 mg/kg p.o. 30 min before session): 0.035±0.010 responses/second/session | average number of remifentanil infusions (Sprague-Dawley rats [2]; 30 mg/kg p.o. 30 min before one remifentanil 3.2 μg/kg/infusion session): did not significantly affect | rate of lever press (speed of lever pressing) (Sprague-Dawley rats [2]; 30 mg/kg p.o. 30 min before session): 0.026±0.007 responses/second/session | increase of foot-licking latency as compared with animals receiving morphine from Day 1 to Day 6 (morphine tolerant mice; 1 mg/kg p.o. 60 minutes before the test on Day 7, p<0.01): +44% | effect on foot-licking latency (morphine tolerant mice; 3 mg/kg p.o. 60 minutes before the test on Day 7): no significant effects | effect on foot-licking latency (morphine tolerant mice; 10 mg/kg p.o. 60 minutes before the test on Day 7): no significant effects

Cc1cccc(C#Cc2ccccc2)n1 [Compound (III), 2-Methyl-6-(phenylethynyl)-pyridine, reference compound]
number of active lever presses as compared with vehicle condition (Sprague-Dawley rats [1]; rat, in vivo): significantly decreased | number of inactive lever presses as compared with vehicle (Sprague-Dawley rats [1]; rat, in vivo): did not significantly affect | rate of lever press (Sprague-Dawley rats [2]; rat, in vivo): 0.039±0.011 responses per second | increase of foot-licking latency as compared with animals receiving morphine from Day 1 to Day 6 (morphine tolerant mice; 10 mg/kg p.o. 60 minutes before the test on Day 7, p<0.05): +32% | reduction of the self-administration (SA) of ketamine ([3]; dose dependently): 75% | reduction of the self-administration (SA) of heroin ([3]; modestly): 20%

Cc1nc(C#Cc2cccnc2)cs1 [MTEP, 3-[(2-methyl-1,3-thiazol-4-yl)ethynyl]pyridine]
operant responding for morphine (adult CD1 mice; morphine 0.1 mg/kg/infusion): attenuated | cue-induced morphine-seeking after a period of forced abstinence (adult CD1 mice): attenuated
